Key:
[1] = Body weight pre- and post-MCAO; format: in vivo; conditions: rat MCAO; 10 mg/kg i.v. on Day 1, 2 and 3 after MCAO
Protocol: The rats were randomly assigned into two groups of ten each. Each group was injected intravenously (i.v.) with 2 ml/kg Compound 2 at 10 mg/kg or vehicle (18% Cremophor RH40 and 10% DMSO in 5% dextrose solution (D5WW)) on Day 1, 2, and 3 after MCAO. Day 0 is the day of the MCAO, and the days after the MCAO are numbered consecutively (Day 1, Day 2, Day 3, etc.) D-pre represents the day prior to the MCAO.
Typically, after an initial rapid rise, there is a continued slow, steady, and partial improvement in sensorimotor function (as measured by forelimb and hindlimb placing and body swing tests) during the first three weeks after stroke. […] The normal rise in body weight following surgery was not affected by treatment with Compound 2.

FGFR1 = FGFR1 (Homo sapiens, UniProt P11362); experiment: Thermal shift assay (TSA) of FGFR1/FGF2 complex, FGFR1 melting peak; format: binding; design: made in house; host or cells: Escherichia coli BL21 (DE3) Star
Sequence of FGFR1 (P11362 142-365 limits assumed): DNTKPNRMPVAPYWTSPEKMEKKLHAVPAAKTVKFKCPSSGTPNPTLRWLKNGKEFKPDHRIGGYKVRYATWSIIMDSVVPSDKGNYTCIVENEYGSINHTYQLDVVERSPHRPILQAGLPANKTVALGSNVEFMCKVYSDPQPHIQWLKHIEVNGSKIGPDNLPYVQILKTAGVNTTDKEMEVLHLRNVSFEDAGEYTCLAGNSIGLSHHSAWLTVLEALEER
Sequence of FGFR1 (P09038 156-288 partner limits assumed): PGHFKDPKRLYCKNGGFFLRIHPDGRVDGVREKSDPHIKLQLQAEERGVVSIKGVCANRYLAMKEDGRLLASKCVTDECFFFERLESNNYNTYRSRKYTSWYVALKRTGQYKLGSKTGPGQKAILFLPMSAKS
Text: TSA was utilized to biophysically characterize the recombinant human FGFR1/FGF2 complex in the presence or absence of compounds. The assay functions by protein denaturation over a temperature gradient. During protein unfolding, exposed hydrophobic regions bind a dye and fluoresce due to solvent relaxation effects. Changes in the melting temperature of the protein complex in the presence of each compound were monitored and compounds were screened/ranked using this method.
Cell pellets were thawed and resuspend in 100 mL of FGFR1 Lysis Buffer per 9 g of pellet (20 mM Tris-HCl pH 8.0, 500 mM NaCl, 1 mM dithiothreitol) by stirring at 4° C. for 1 hour. Cells were lysed in 3 cycles on/off for 3 minutes each at 4° C. via sonication followed by centrifugation for 30 minutes at 16,000 RPM in rotor F20 at 4° C., after which the supernatant was discarded. This process was then repeated twice. The pellets were resuspended in 150 mL FGFR1 solubilization buffer (8 M urea, 20 mM Tris-HCL pH 8.0, 150 mM NaCl, 1 mM dithiothreitol) by stirring for 1 hour at 4° C., and the solution was subjected to centrifugation for 30 minutes at 16,000 RPM in rotor F20 at 4° C. The pellets were discarded, and the supernatant was filtered through a […] polyethersylfone (PES) filter. After filtration, the supernatant was added dropwise to 1 L FGFR1 refolding buffer (20 mM Tris-HCl pH 8.0, 150 mM NaCl, 0.5 M L-arginine, 25 mM MgCl2) using a glass column. Protein was concentrated by tangential flow from 1 L to 100 mL and dialyzed against 1 L of FGFR1 Dialysis Buffer (20 mM Tris-HCl pH 8.0, 150 mM NaCl, 25 mM MgCl2) for 2 hours at 4° C., and the dialysis step was repeated with fresh buffer for an additional 2 hours at 4° C. The material thus obtained was then centrifuged at 4000 RPM in Eppendorf tabletop centrifuge for 5 minutes and loaded onto 2×5 mL heparin columns. The columns were washed extensively (20 CV) using FGFR1 Heparin Buffer A (20 mM Tris-HCl pH 8.0, 150 mM NaCl, 25 mM MgCl2) and then eluted using FGFR1 Heparin Buffer B (20 mM Tris-HCl pH 8.0, 1.5 M NaCl, 25 mM MgCl2). A large peak was recovered that was >95% pure by SDS-PAGE analysis gel (Expected Mw: 25 KDa). The protein was collected and diluted in 20 mM Tris-HCl pH 8.0, 25 mM MgCl2 buffer in order to reach a NaCl concentration of 150 mM. The FGFR1 thus obtained was concentrated and stored at −80° C.
Thawed aliquots of purified FGF2 (1.0 mg/mL) and FGFR1 (1.6 mg/mL) proteins were mixed in a 1:1 molar ratio (64 μM: 64 μM) on ice for 30 min at 4° C. and plated prior to the thermal shift assay (TSA). Complex formation was verified by loading the complexed material on a size exclusion column (superdex 300GL S200) and observing the monodisperse peak corresponding to the FGF2/FGFR1 complex (˜40 kDa). Compounds of the invention were screened in dose response format (0-100 μM) with the FGF2/FGFR1 complex in triplicates. FGF2/FGFR1/compound complexes were mixed in a 1000:1 ratio with Sypro Orange dye (Sigma-Aldrich). The samples were processed using a Bio-Rad CFX C96 Touch quantitative polymerase chain reaction and run using the FRET assay settings with a heating ramp of 0.3° C./s cycling from 4 to 100° C. Data analysis was performed using the Bio-Rad CFX Manager Software (version 3.1, Bio-Rad) and changes in the melting temperature (Tm) of the complex in the presence of each compound were monitored. The results are shown in Tables 2 and 3 below and also in FIG. 1 (for Compound 2).

ΔTm at 2 µM (FGFR1; 2 μM compound, FGF2/FGFR1 complex): 4 °C
ΔTm at 10 µM (FGFR1; 10 μM compound, FGF2/FGFR1 complex): 4.5 °C
shift of the melting curve of the FGF-2/FGFR1 complex (TSA) (FGFR1; 10 μM, purified FGF-2/FGFR1 complex, FIG. 1): increased stability of the complex
SMILES: CCN(CC)c1ccc2c(c1)CCN(C1CCN(C(c3ccccc3)c3ccccc3)CC1)C2 [Compound 2, 2-(1-benzhydrylpiperidin-4-yl)-N,N-diethyl-1,2,3,4-tetrahydroisoquinolin-6-amine]
rise in body weight following surgery [1]: not affected
